Laboratory results taken from US12083105B2, “Compositions and methods for treating adult-onset neuronal ceroid lipofuscinosis (Kufs disease)” (CORNELL UNIVERSITY, priority 2020, dated 2024).

Legend:
[1] = system: CSPα^L115R and CSPα^L116Δ; experiment: CSPα oligomerization and palmitoylation in CSPα−/− primary cortical neurons expressing ANCL mutants (SDS-PAGE, quantitative immunoblotting); type: cell-based, mice; conditions: 200 μM, 72 h, FIG. 3D; for oligomerization of CSPα^L115R and CSPα^L116Δ: vs vehicle (0.1% DMSO); for palmitoylation of CSPα^L115R and CSPα^L116Δ: vs vehicle
CSPα with SNAP-25 = experiment: Interaction of CSPα with SNAP-25 in ANCL iNs (SNAP-25 IP, co-IP of CSPα); type: cell-based, human; conditions: 72 h, compared to control, FIG. 7C
Method: ANCL patient-derived fibroblasts were treated with 200 μM of L1 or Dfx, or vehicle (0.1% DMSO=Control) for 72 h, before measuring the UV-Vis absorbance spectra of immunoprecipitated CSPα eluted by trypsinization (solid lines). Spectra were re-read after 10 min of 0.1 N HCl treatment (dashed lines). The experiments shown in FIGS. 7B-7I, were conducted using ANCL fibroblasts converted to iNs using BAM+ND1 technique. […] Quantitative immunoblotting was used to measure levels of oligomerized and fully palmitoylated CSPα as well as total SNAP-25. Oligo=oligomers; Palm=palmitoylated. […] The interaction of CSPα with SNAP-25 in ANCL iNs was measured by immunoprecipitating SNAP-25 followed by quantitative immunoblotting of co-immunoprecipitated CSPα (normalized to SNAP-25 IP). Note that mainly CSPα monomers and not oligomers were detected bound to SNAP-25. Control=control sham IP without IgG. […] Turnover of SNAP-25 was determined by cycloheximide chase, while maintaining the iron-chelators or vehicle in the medium. […] In the experiments shown in FIGS. 7E-7G, ANCL iNs treated with L1, Dfx, or vehicle for 56 d and analyzed. […] The levels of lipofuscin were determined by ELISA. In the experiments shown in FIGS. 7H-7I 56 day old untreated ANCL iNs were treated with L1, Dfx, or vehicle, and analyzed. […]

ATP5G = ATP5G accumulation in ANCL iNs (quantitative immunoblotting); type: cell-based, human; conditions: for accumulation of ATP5G: ANCL iNs treated for 56 d (prevention), FIG. 7F; for ATP5G levels: added to ANCL iNs after 56 days of lipofuscin accumulation, followed 3 weeks (treatment), compared to control, FIG. 7H
Method: ANCL patient-derived fibroblasts were treated with 200 μM of L1 or Dfx, or vehicle (0.1% DMSO=Control) for 72 h, before measuring the UV-Vis absorbance spectra of immunoprecipitated CSPα eluted by trypsinization (solid lines). Spectra were re-read after 10 min of 0.1 N HCl treatment (dashed lines). The experiments shown in FIGS. 7B-7I, were conducted using ANCL fibroblasts converted to iNs using BAM+ND1 technique. […] Quantitative immunoblotting was used to measure levels of oligomerized and fully palmitoylated CSPα as well as total SNAP-25. Oligo=oligomers; Palm=palmitoylated. […] The interaction of CSPα with SNAP-25 in ANCL iNs was measured by immunoprecipitating SNAP-25 followed by quantitative immunoblotting of co-immunoprecipitated CSPα (normalized to SNAP-25 IP). Note that mainly CSPα monomers and not oligomers were detected bound to SNAP-25. Control=control sham IP without IgG. […] Turnover of SNAP-25 was determined by cycloheximide chase, while maintaining the iron-chelators or vehicle in the medium. […] In the experiments shown in FIGS. 7E-7G, ANCL iNs treated with L1, Dfx, or vehicle for 56 d and analyzed. […] The levels of lipofuscin were determined by ELISA. In the experiments shown in FIGS. 7H-7I 56 day old untreated ANCL iNs were treated with L1, Dfx, or vehicle, and analyzed. […] Data are from FIG. 7A representative of n=4, FIG. 7B n=4, FIG. 7C n=4, FIG. 7D n=7, FIG. 7F n=4, FIG. 7G n=4, FIG. 7H n=6, FIG. 7I n=3. In FIGS. 7B-7C and FIGS. 7F-7G *P<0.05; **P<0.01; ****P<0.0001 by two-tailed Student's t-test. #P<0.05 by Mann-Whitney-Wilcoxon U test. In FIG. 7D-7C and FIGS. 7H-7I **P<0.01; ***P<0.001; ****P<0.0001 by two-way ANOVA; ##P<0.01; ###P<0.001; ####P<0.0001 by Tukey's multiple comparisons test.
For SDS-PAGE, 10-15% Laemmli gels (10.3% T and 3.3% C) were used to separate proteins on Bio-Rad apparati. Proteins were transferred onto nitrocellulose (pore-size=[…]; GE Healthcare) and blocked with 5% w/v fat-free dry milk in tris buffered saline, pH 7.5 supplemented with 0.1% Tween 20 (TBS-T). Immunoblotting was performed by incubating the blocked membranes with primary antibodies in blocking buffer for 8-16 hours. Following 5 washes with TBS-Tween 20 (0.1%). Blots were incubated with secondary antibodies (goat anti-rabbit conjugated to IRDye […] or 800CW; LI-COR) at 1/5000 in blocking buffer for 1-3 hours. Immunoblots were washed 5× with TBS-T and dried, then scanned on Odyssey CLx (LI-COR) and quantified using Image-Studio software (LI-COR).
For ATPSG immunoblots, following the transfer, nitrocellulose membranes were dried and fixed for 15 min at room temperature in 0.2% glutaraldehyde in PBS. […]
Effect of iron chelators on the accumulation of lipofuscin was monitored by ELISA for lipofuscin or based on lipofuscin autofluorescence. […]

Structure (SMILES) | oligomerization of CSPα^L115R and CSPα^L116Δ [1] | palmitoylation of CSPα^L115R and CSPα^L116Δ [1] | interaction of CSPα with SNAP-25 (CSPα with SNAP-25) | accumulation of ATP5G (ATP5G) | ATP5G levels (ATP5G)
CC(=O)N(O)CCCCCNC(=O)CCC(=O)N(O)CCCCCNC(=O)CCC(=O)N(O)CCCCCN [Dfx, N′-[5-(Acetyl-hydroxy-amino)pentyl]-N-[5-[3-(5-aminopentyl-hydroxy-carbamoyl)propanoylamino]pentyl]-N-hydroxy-butane diamide] | reduced the oligomerization | improved | improved | trend toward reduced accumulation | diminished down to similar levels as observed in the prevention experiments
Cc1c(O)c(=O)ccn1C [L1, 3-hydroxy-1,2-dimethyl-4(1H)-pyridone] | reduced the oligomerization | improved | improved | trend toward reduced accumulation | diminished down to similar levels as observed in the prevention experiments
